Inconclusive results and toxic doses are left out. Cut-off read from the data, not from the text of the source: active = T/C of 150% or more; inactive = T/C below 125%.
System: L1210 leukemia ip in BDF1 mice, survival T/C
Assay: NCI In Vivo Anticancer Drug Screen. Data for tumor model L1210 Leukemia (intraperitoneal) in B6D2F1 (BDF1) mice
Details: endpoint: mean survival time, higher = longer survival
Summary of the method: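 Read-out is survival time, reported as the treated-group measurement over the vehicle-control measurement.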

[1] = dose: 100.0 mg/kg/injection, schedule: Q04DX002 (ip), vehicle: saline with Tween-80
[2] = dose: 200.0 mg/kg/injection, schedule: Q04DX002 (ip), vehicle: saline with Tween-80
[3] = dose: 400.0 mg/kg/injection, schedule: Q04DX002 (ip), vehicle: saline with Tween-80
[4] = dose: 100.0 mg/kg/injection, schedule: Q04DX003 (ip), vehicle: Klucel (hydroxypropylcellulose) (HPC)
[5] = dose: 200.0 mg/kg/injection, schedule: Q04DX003 (ip), vehicle: Klucel (hydroxypropylcellulose) (HPC)
[6] = dose: 400.0 mg/kg/injection, schedule: Q04DX003 (ip), vehicle: Klucel (hydroxypropylcellulose) (HPC)
[7] = dose: 100.0 mg/kg/injection, schedule: Q01DX001 (ip), vehicle: saline

Measured: T/C

CCn1c(=S)[nH]c2ccccc2c1=O
inactive: [1] 98 % of control | [2] 109 % of control | [3] 102 % of control

O=c1[nH]cc(Cc2ccc(O)cc2)c(=O)[nH]1
inactive: dose: 50.0 mg/kg/injection, schedule: Q01DX005 (ip), vehicle: saline with Tween-80 106 % of control | dose: 100.0 mg/kg/injection, schedule: Q01DX005 (ip), vehicle: saline with Tween-80 101 % of control | dose: 200.0 mg/kg/injection, schedule: Q01DX005 (ip), vehicle: saline with Tween-80 98 % of control | dose: 400.0 mg/kg/injection, schedule: Q01DX005 (ip), vehicle: saline with Tween-80 109 % of control

O=S(=O)(C1CC1c1ccccc1)N(c1ccccc1)c1ccccc1 (stereo not drawn)
inactive: dose: 100.0 mg/kg/injection, schedule: Q01DX001 (ip), vehicle: Klucel (hydroxypropylcellulose) (HPC) 94 % of control | [4] 93 % of control | dose: 200.0 mg/kg/injection, schedule: Q01DX001 (ip), vehicle: Klucel (hydroxypropylcellulose) (HPC) 100 % of control | [5] 93 % of control | dose: 400.0 mg/kg/injection, schedule: Q01DX001 (ip), vehicle: Klucel (hydroxypropylcellulose) (HPC) 97 % of control | [6] 93 % of control

O=S(=O)(Nc1cccc(C(F)(F)F)c1)c1ccccc1
inactive: dose: 100.0 mg/kg/injection, schedule: Q01DX009 (ip), vehicle: Klucel (hydroxypropylcellulose) (HPC) 106 % of control | [4] 98 % of control | dose: 200.0 mg/kg/injection, schedule: Q01DX009 (ip), vehicle: Klucel (hydroxypropylcellulose) (HPC) 107 % of control | [5] 97 % of control | dose: 400.0 mg/kg/injection, schedule: Q01DX009 (ip), vehicle: Klucel (hydroxypropylcellulose) (HPC) 101 % of control | [6] 95 % of control

CC1(C)N=C(N)N=C(N)N1c1ccc(CC(C(=O)Nc2cccc(S(=O)(=O)F)c2)c2ccccc2)cc1 (stereo not drawn)
inactive: dose: 25.0 mg/kg/injection, schedule: Q01DX001 (ip), vehicle: saline 105 % of control | dose: 50.0 mg/kg/injection, schedule: Q01DX001 (ip), vehicle: saline 106 % of control | dose: 87.5 mg/kg/injection, schedule: Q01DX001 (ip), vehicle: saline 94 % of control | [7] 97 % of control

S=C(CC(C(=S)N1CCOCC1)N1CCOCC1)N1CCOCC1 (stereo not drawn)
inactive: dose: 25.6 mg/kg/injection, schedule: Q04DX002 (ip), vehicle: saline with Tween-80 98 % of control | dose: 64.0 mg/kg/injection, schedule: Q04DX002 (ip), vehicle: saline with Tween-80 102 % of control | dose: 100.0 mg/kg/injection, schedule: Q04DX003 (ip), vehicle: saline with Tween-80 98 % of control | dose: 160.0 mg/kg/injection, schedule: Q04DX002 (ip), vehicle: saline with Tween-80 87 % of control | dose: 200.0 mg/kg/injection, schedule: Q04DX003 (ip), vehicle: saline with Tween-80 104 % of control | [3] 98 % of control | dose: 400.0 mg/kg/injection, schedule: Q04DX003 (ip), vehicle: saline with Tween-80 101 % of control

N#Cc1c(-c2ccc(Cl)cc2)n(O)c2ccccc12
inactive: [7] 96 % of control | dose: 200.0 mg/kg/injection, schedule: Q01DX001 (ip), vehicle: saline 100 % of control | dose: 400.0 mg/kg/injection, schedule: Q01DX001 (ip), vehicle: saline 96 % of control

ONc1ccc(Cl)cc1
inactive: dose: 6.25 mg/kg/injection, schedule: Q01DX009 (ip), vehicle: gum acacia 105 % of control | dose: 12.5 mg/kg/injection, schedule: Q01DX001 (ip), vehicle: gum acacia 104 % of control | dose: 12.5 mg/kg/injection, schedule: Q01DX009 (ip), vehicle: gum acacia 100 % of control | dose: 12.5 mg/kg/injection, schedule: Q04DX003 (ip), vehicle: gum acacia 100 % of control | dose: 25.0 mg/kg/injection, schedule: Q01DX001 (ip), vehicle: gum acacia 104 % of control | dose: 25.0 mg/kg/injection, schedule: Q04DX003 (ip), vehicle: gum acacia 98 % of control | dose: 50.0 mg/kg/injection, schedule: Q01DX001 (ip), vehicle: gum acacia 100 % of control

N#CCC(=O)N/N=C/c1cc(Cl)cc(Cl)c1O
inactive: [1] 108 % of control | [2] 97 % of control | [3] 93 % of control

— PubChem BioAssay AID248 (DTP/NCI, 2004)
